Results from patent US20110054025A1, “USE OF A PENTACYCLIC TRITERPENE IN A PHARMACEUTICAL COMPOSITION FOR THE TREATMENT OF MULTIPLE SCLEROSIS” (CONSEJO SUPERIOR DE INVESTIGACIONES CIENTIFICAS, priority 2008, published 2011).
“Also recorded” adds a separate entry of the source.

Legend:
Type in all cases: in vivo, C57BL/6 mice
[1] = system: experimental autoimmune encephalomyelitis (EAE) mice; assay: Experimental autoimmune encephalomyelitis (EAE) in mice: clinical score, body weight, survival
Procedure: In the experiments we used fifteen animals per group. EAE was induced as described (Slavin A. Autoimmunity 1998, 28: 109) in C57BL mice by […]. The immunization was carried out with 100 μg of a partial peptide of myelin/oligodendrocyte glycoprotein ([…]) in complete Freund's adjuvant containing 4 mg of Mycobacterium tuberculosis H37Ra in 1 ml. The mice were immunized by subcutaneous injection of this emulsion on day 0. In addition, on day 0 and 2, were administered intraperitoneally 300 ng/200 μl of Bordetella pertussis toxin. The administration of 6 mg/kg of oleanolic acid was performed intraperitoneally once a day, beginning:
1.—12 days after induction of EAE, when clinical symptoms were detected, until the end of the experiment (21 days after induction) (OA1), and
2.—after 7 days of induction of EAE, before the onset of the disease, until the end of the experiment (21 days after induction) (OA2).
Mice were examined, weighed and scored daily in a double-blind manner for signs of EAE. OA-treated EAE mice were compared with a group of EAE animals treated with placebo, with untreated control animals or control animals received the same daily dose oleanolic acid. In addition, a pathologic evaluation was performed to confirm the effect of improving the state of the disease. The weight of the mice in each group is represented in FIGS. 1 A and 2 A. The level of paralysis reached by each group of mice is shown in FIGS. 1 B and 2 B.
The effect of disease improvement (clinical effect) by the action of oleanolic acid is scored and evaluated with the pattern presented below.
Grade 0.5, partial loss/reduced tail tone, assessed by inability to curl the distal end of the tail (Tail 50% or ⅔).
Grade 1.0, tail atony 100%
Grade 1.5, slightly/moderately clumsy gait, impaired righting ability, or combination.
Grade 2.0, hind limb weakness, partial (1 or 2)
Grade 2.5, partial (1 or 2) hind limb paralysis.
Grade 3, complete hind limb paralysis.
Grade 3.5, limb weakness.
Grade 4, tetraplegic. Complete limb paralysis
Grade 5, moribund state or death.
Chronic progressive EAE disease was induced in adult 8-10-wk-old female C57BL/J6 mice following the protocol described by (Slavin A. Autoimmunity 1998, 28:109-20). Mice were injected in the tail base bilaterally with an innoculum containing 100 μg of MOG peptide 35-55 emulsified in complete Freund's adjuvant containing 0.4 mg/ml Mycobacterium tuberculosis H37 RA. Then, i.p. injection 300 ng/animal of B. pertussis toxin was administered by two times with an interval of 48 hours. Mice were examined daily to monitor weight loss and the onset of neurological symptoms

[2] = system: leukocyte rolling and adhesion on brain microvasculature; assay: Intravital fluorescence microscopy of leukocyte-endothelium interactions in brain microvasculature of EAE mice; settings: vs untreated EAE group
Procedure: Intravital microscopy techniques allow the study of leukocyte-endothelium interactions. […] To make a precise study of leukocyte-endothelium interactions, we first made a record of the venule for one minute using a camcorder, and in a second time, a more detailed analysis was performed. The parameters of interest were the number of leukocytes adhering to the venular endothelium (number of leukocytes stationary for more than 30 seconds), and the number of rolling leukocytes (number of white cells per minute moving at a velocity less than that of erythrocytes).
The craniotomy was performed on the parietal zone. Animals received i.v. administration of rhodamine 6G (0.3 mg/kg body weight) to fix leucocytes. The fluorescence associated to rhodamine 6G was visualized at 510-560 nm by epi-ilumination. The microscope (20×) was used for observing micro-circulating events in brain.

[3] = system: blood-brain barrier permeability; assay: Evans blue extravasation (blood-brain barrier permeability) in CNS tissues of EAE mice; settings: spinal cord, brain and cerebellum, vs untreated EAE animals
Procedure: Evans blue dye is able to bind quantitatively to albumin, both in vivo and in vitro. This property has been widely used for quantification of protein extravasation as an index of increased vascular permeability and, indirectly, of tissue damage. The Evans Blue, once extravasated into the tissues, is removed from them, and then quantified by visible spectrophotometry.
Mice from all experimental groups were given 30 mg/kg of Evans Blue i.p. Then, the spinal cord, cerebrum and cerebellum was removed and washed in saline. The dye was extracted from the CNS tissues with formamide and the concentration was determined by measuring the absorvance at 620 nm. CNS tissue was dried 24 h at 60° C. and weighed. The extravasated dye was expressed as μg of Evans Blue/mg dried weight of the tissue.

[4] = system: Osteopontin; assay: Osteopontin in CNS tissues of EAE mice by ELISA; settings: spinal cord, brain and cerebellum, day 21 post-immunization, vs EAE mice
Procedure: Animals of the different experimental groups were sacrificed at day 21 post-immunization and CNS protein extracts (cerebral cortex, cerebellum and spinal cord) were prepared by homogenization in a solution: 0.4 M NaCl, 0.05% Tween 20, 0.5% BSA, 0.1 mM phenylmethylsulfonyl fluoride, 0.1 mM benzetonium chloride, 10 mM EDTA and 20 KI aprotinin (100 mg tissue/ml). The homogenate was centrifuged at 10,000 rpm for 10 min at 4° C. The concentration of osteopontin was determined in the supernatants by a commercial ELISA kit.

## CC1(C)CC[C@]2(C(=O)O)CC[C@]3(C)C(=CCC4[C@@]5(C)CC[C@H](O)C(C)(C)C5CC[C@]43C)C2C1 (stereo partly drawn) [oleanolic acid, 3β-hydroxyolean-12-en-28-oic acid]
[1]; OA1: 6 mg/kg ip daily from day 12 after induction (onset of clinical symptoms) to day 21, vs untreated EAE mice
  clinical status / severity of the disease (signs of paralysis score): decreases the severity of the disease; also recorded: significant improvement in clinical status of the disease
[1]; OA1: 6 mg/kg ip daily from onset of symptoms, recovery effect (FIG. 1A)
  body weight: reduction of body weight was suppressed
[1]; OA2: 6 mg/kg ip daily from day 7, preventive effect (FIG. 2A)
  body weight: reduction of body weight was suppressed
[1]; OA2: prophylactic, 6 mg/kg ip daily from day 7 after induction to day 21, 6 mg/kg
  onset of the disease: delays the onset of EAE; also recorded: delay in the onset of the disease
[1]; OA2: prophylactic, 6 mg/kg ip daily from day 7 after induction to day 21, vs untreated EAE mice
  severity of EAE (clinical signs): significantly attenuated
[1]; oleanolic acid given at the onset of symptoms, placebo-treated EAE mice die within first 40 days
  survival (time until animals die): ≥ 60 days post-induction
[2]; protocol EAE+OA1
  flow of leukocytes rolling on the endothelium: significant decrease
  leukocytes adhering to the endothelium: significant decrease
[2]; protocol EAE+OA2
  flow of leukocytes rolling on the endothelium: significant decrease
  leukocytes adhering to the endothelium: significant decrease
[3]; protocol EAE+OA1
  Evans blue leakage in CNS tissues (vascular permeability): significantly reduced leakage
[3]; protocol EAE+OA2
  Evans blue leakage in CNS tissues (vascular permeability): significantly reduced leakage
[4]; protocol OA1
  Osteopontin expression in CNS tissues: significantly reduced
[4]; second protocol (printed OA1, FIG. 5: EAE+OA2)
  Osteopontin expression in CNS tissues: significantly reduced
